In publication PMC11259170, “Small-molecule probe for IBD risk variant GPR65 I231L alters cytokine signaling networks through positive allosteric modulation” (Science Advances, 2024):

Legend:
[1] = system: GFP-expressing HeLa cells; assay: cAMP detection in HeLa expression cell line, GFP control; assay type: cell-based, human; details: Homo sapiens, HeLa, 1st GFP column pair, NA = no activity
Summary of the method: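 HeLa cells stably expressing C-terminally V5-tagged receptor or GFP (lentiviral, puromycin 3 μg/ml) stimulated at 1500 cells per well for 30 min at RT with compound (10 mM DMSO stock) in stimulation buffer at pH 7.2. cAMP detected by Lance Ultra TR-FRET after lysis and 1 h detection, excitation 337 nm, emission 620/665 nm.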

[2] = system: murine macrophages and T cells; set-up: method as in PMID 22445881; details: murine macrophages and T cells ref 33; cited from earlier work

Q: With CN1N=C(SCc2ccc(Cl)cc2Cl)Sc2c1cnn(C)c2=O [BTB09089, reference compound] as the molecule, how does the EC50 [1] read?
A: Its EC50 is 194 nM.

Q: And the Emax ([1]; relative to 100uM forskolin (100%) and DMSO (0%), read-out: GFP Max Activity %)?
A: The Emax was 1.95%.

Q: And the “cAMP production through the Gαs-coupled pathway” value [2]?
A: The value was “increased cAMP production”.
